This is an account of results in US10364245B2 (CHIESI FARMACEUTICI S.p.A., priority 2017, dated 2019).

A value given as a limit tells only on which side of the number the result lay.

Experiment [1] deals with T1, p38 alpha (Homo sapiens, UniProt Q16539).
T1 construct: purchased Invitrogen PV3304
Description: P38 alpha enzyme inhibition assay (Alphascreen kinase activity assay). The note with it: 100 pM p38 alpha, 2 hours preincubation at 25° C., 250 μM ATP, ATF-2 fusion protein; read-out: p38α inhibition. Format: biochemical. Summed up: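 100 pM p38 alpha preincubated 2 h at 25 °C with compound and 0.3 μg/ml ATF-2 fusion substrate (HEPES pH 7.5, MgCl2, 1% DMSO). Reaction started with 250 μM ATP, run 1 h at 25 °C, stopped with EDTA; phospho-ATF2 detected by AlphaScreen luminescence. IC50 from concentration-response curves.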
Background: Alpha assays give light when donor and acceptor beads are brought close together.

In experiment [2] the test system is Peripheral Blood Mononuclear Cells (PBMCs), TNFα release. As to the kind of experiment: LPS-stimulated PBMC TNFα release assay. The settings on record: human PBMC, LPS (10 ng/ml), 18 h, compound 1 h before LPS; read-out: LPS-stimulated PBMC TNFα release inhibition. The class given is cell-based. Put shortly: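 Human PBMCs from healthy donors, serum-starved 3 h, then pre-incubated 1 h at 37 °C with compound in 1% FBS medium before LPS (10 ng/ml) for 18 h. Supernatant TNFα measured by MSD; IC50 from dose-response as % inhibition of control, at least three experiments.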

T1 sequence (Q16539 whole entry): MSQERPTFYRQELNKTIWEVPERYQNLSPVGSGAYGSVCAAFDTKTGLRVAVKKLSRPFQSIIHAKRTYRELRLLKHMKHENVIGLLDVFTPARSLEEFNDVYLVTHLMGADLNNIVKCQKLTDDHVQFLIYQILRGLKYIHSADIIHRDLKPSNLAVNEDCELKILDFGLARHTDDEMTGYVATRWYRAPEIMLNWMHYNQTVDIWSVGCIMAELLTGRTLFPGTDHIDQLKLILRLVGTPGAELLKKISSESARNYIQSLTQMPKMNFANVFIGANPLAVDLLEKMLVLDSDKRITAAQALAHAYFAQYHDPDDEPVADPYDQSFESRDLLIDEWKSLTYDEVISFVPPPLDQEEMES

For the compound `CNC(=O)c1cc(NC(=O)N[C@H]2CC[C@@H](Oc3ccc4nnc([C@]5(C)CCCN5C)n4c3)c3ccccc32)cc(C(C)(C)C)n1` [Example 53, 6-(tert-Butyl)-4-(3-((1S,4R)-4-((3-((S)-1,2-dimethylpyrrolidin-2-yl)-[1,2,4]triazolo[4,3-a]pyridin-6-yl)oxy)-1,2,3,4-tetrahydronaphthalen-1-yl)ureido)-N-methylpicolinamide], the IC50 was in the range of 1 to 10 nM in experiment [1] and 1 to 5 nM in experiment [2].
The like results for `COCC(C)(C)c1nnc2ccc(O[C@@H]3CC[C@H](NC(=O)Nc4cc(C(C)(C)C)nc(C(=O)NCCN(C)C)n4)c4ccccc43)cn12` [Example 54, 4-(tert-Butyl)-N-(2-(dimethylamino)ethyl)-6-(3-((1S,4R)-4-((3-(methoxy-2-methylpropan-2-yl)-[1,2,4]triazolo[4,3-a]pyridin-6-yl)oxy)-1,2,3,4-tetrahydronaphthalen-1-yl)ureido)pyrimidine-2-carboxamide] were, in that order, less than 1 nM and 1 to 5 nM.
On to `CN(C)CCNC(=O)c1nc(NC(=O)N[C@H]2CC[C@@H](Oc3ccc4nnc(C5(C)COC5)n4c3)c3ccccc32)cc(C(C)(C)C)n1` [Example 55, 4-(tert-Butyl)-N-(2-(dimethylamino)ethyl)-6-(3-((1S,4R)-4-((3-(3-methyloxetan-3-yl)-[1,2,4]triazolo[4,3-a]pyridin-6-yl)oxy)-1,2,3,4-tetrahydronaphthalen-1-yl)ureido)pyrimidine-2-carboxamide], for which the results for the IC50 in experiment [1] and in experiment [2] were 1 to 10 nM and more than 5 nM, respectively.
In the case of `CO[C@@H](C)c1nnc2ccc(O[C@@H]3CC[C@H](NC(=O)Nc4cc(C(C)(C)C)nc(C(=O)NCCN(C)C)n4)c4ccccc43)cn12` [Example 56, 4-(tert-Butyl)-N-(2-(dimethylamino)ethyl)-6-(3-((1S,4R)-4-((3-((S)-1-methoxyethyl)-[1,2,4]triazolo[4,3-a]pyridin-6-yl)oxy)-1,2,3,4-tetrahydronaphthalene-1-yl)ureido)pyrimidin-2-carboxamide], the values for the IC50 in experiment [1] and in experiment [2] were 1 to 10 nM and more than 5 nM, respectively.
In the same order, the values of `COC(C)(C)c1nnc2ccc(O[C@@H]3CC[C@H](NC(=O)Nc4cc(COCCN5CCOCC5)nc(C(C)(C)C)c4)c4ccccc43)cn12` [Example 57] are 1 to 10 nM and more than 5 nM.
In the same order, the values of `CN(C)CCNC(=O)c1cc(C(C)(C)C)cc(NC(=O)N[C@H]2CC[C@@H](Oc3ccc4nnc(C(C)(C)C)n4c3)c3ccccc32)n1` [Example 58, 4-(tert-Butyl)-6-(3-((1S,4R)-4-((3-(tert-butyl)-[1,2,4]triazolo[4,3-a]pyridin-6-yl)oxy)-1,2,3,4-tetrahydronaphthalen-1-yl)ureido)-N-(2-(dimethylamino)ethyl)picolinamide] are less than 1 nM and 1 to 5 nM.
Turning to `CN(C)CCNC(=O)c1nc(NC(=O)N[C@H]2CC[C@@H](Oc3ccc4nnc(CC(C)(C)C)n4c3)c3ccccc32)cc(C(C)(C)C)n1` [Example 59, 4-(tert-Butyl)-N-(2-(dimethylamino)ethyl)-6-(3-((1S,4R)-4-((3-neopentyl-[1,2,4]triazolo[4,3-a]pyridin-6-yl)oxy)-1,2,3,4-tetrahydronaphthalen-1-yl)ureido)pyrimidine-2-carboxamide], the IC50 in experiment [1] was 1 to 10 nM; in experiment [2], more than 5 nM.
`CC(C)Cc1nnc2ccc(O[C@@H]3CC[C@H](NC(=O)Nc4cc(C(C)(C)C)nc(C(=O)NCCO)n4)c4ccccc43)cn12` [Example 60, 4-(tert-Butyl)-N-(2-hydroxyethyl)-6-(3-((1S,4R)-4-((3-isobutyl-[1,2,4]triazolo[4,3-a]pyridin-6-yl)oxy)-1,2,3,4-tetrahydronaphthalen-1-yl)ureido)pyrimidine-2-carboxamide]: the IC50 was less than 1 nM in experiment [1] and 1 to 5 nM in experiment [2].
As to `CN1CCC[C@@]1(C)c1nnc2ccc(O[C@@H]3CC[C@H](NC(=O)Nc4cc(C(=O)NCCO)nc(C(C)(C)C)c4)c4ccccc43)cn12` [Example 61, 6-(tert-Butyl)-4-(3-((1S,4R)-4-((3-((S)-1,2-dimethylpyrrolidin-2-yl)-[1,2,4]triazolo[4,3-a]pyridin-6-yl)oxy)-1,2,3,4-tetrahydronaphthalen-1-yl)ureido)-N-(2-hydroxyethyl)picolinamide], the IC50 in experiment [1] was 1 to 10 nM; in experiment [2], 1 to 5 nM.
The like results for `CN(C)CCNC(=O)c1cc(NC(=O)N[C@H]2CC[C@@H](Oc3ccc4nnc([C@]5(C)CCCN5C)n4c3)c3ccccc32)cc(C(C)(C)C)n1` [Example 62, 6-(tert-Butyl)-N-(2-(dimethylamino)ethyl)-4-(3-((1S,4R)-4-((3-((S)-1,2-dimethylpyrrolidin-2-yl)-[1,2,4]triazolo[4,3-a]pyridin-6-yl)oxy)-1,2,3,4-tetrahydronaphthalen-1-yl)ureido)picolinamide] were, in that order, less than 1 nM and more than 5 nM.
The like results for `CC(C)(C)c1cc(NC(=O)N[C@H]2CC[C@@H](Oc3ccc4nnc(C5CCCC5)n4c3)c3ccccc32)nc(C(=O)NCCO)n1` [Example 64] were, in that order, less than 1 nM and more than 5 nM.
In the same order, the values of `CC(C)c1nnc2ccc(O[C@@H]3CC[C@H](NC(=O)Nc4cc(C(C)(C)C)nc(C(=O)NCCO)n4)c4ccccc43)cn12` [Example 65, 4-(tert-butyl)-N-(2-hydroxyethyl)-6-(3-((1S,4R)-4-((3-isopropyl-[1,2,4]triazolo[4,3-a]pyridin-6-yl)oxy)-1,2,3,4-tetrahydronaphthalen-1-yl)ureido)pyrimidine-2-carboxamide] are less than 1 nM and more than 5 nM.
As for `CC(C)c1nnc2ccc(O[C@@H]3CC[C@H](NC(=O)Nc4cc(C(C)(C)C)nc(C(=O)NCCN5CCOCC5)n4)c4ccccc43)cn12` [Example 66, 4-(tert-butyl)-6-(3-((1S,4R)-4-((3-isopropyl-[1,2,4]triazolo[4,3-a]pyridin-6-yl)oxy)-1,2,3,4-tetrahydronaphthalen-1-yl)ureido)-N-(2-morpholinoethyl)pyrimidine-2-carboxamide], the IC50 was 1 to 10 nM in experiment [1] and more than 5 nM in experiment [2].
For the compound `COCCN(C)CCNC(=O)c1nc(NC(=O)N[C@H]2CC[C@@H](Oc3ccc4nnc(C(C)(C)C)n4c3)c3ccccc32)cc(C(C)(C)C)n1` [Example 67, 4-(tert-butyl)-6-(3-((1S,4R)-4-((3-(tert-butyl)-[1,2,4]triazolo[4,3-a]pyridin-6-yl)oxy)-1,2,3,4-tetrahydronaphthalen-1-yl)ureido)-N-(2-((2-methoxyethyl)(methyl)amino)ethyl)pyrimidine-2-carboxamide], the results for the IC50 in experiment [1] and in experiment [2] were 1 to 10 nM and 1 to 5 nM, respectively.
Regarding `CC(C)(C)c1cc(NC(=O)N[C@H]2CC[C@@H](Oc3ccc4nnc(C(C)(C)C)n4c3)c3ccccc32)nc(C(=O)NCCN2CCOCC2)n1` [Example 68, 4-(tert-butyl)-6-(3-((1S,4R)-4-((3-(tert-butyl)-[1,2,4]triazolo[4,3-a]pyridin-6-yl)oxy)-1,2,3,4-tetrahydronaphthalen-1-yl)ureido)-N-(2-morpholinoethyl)pyrimidine-2-carboxamide], the IC50 in experiment [1] was less than 1 nM; in experiment [2], 1 to 5 nM.
The like results for `CCC(CC)c1nnc2ccc(O[C@@H]3CC[C@H](NC(=O)Nc4cc(C(C)(C)C)nc(C(=O)NCCN5CCOCC5)n4)c4ccccc43)cn12` [Example 69, 4-(tert-butyl)-N-(2-morpholinoethyl)-6-(3-((1S,4R)-4-((3-(pentan-3-yl)-[1,2,4]triazolo[4,3-a]pyridin-6-yl)oxy)-1,2,3,4-tetrahydronaphthalen-1-yl)ureido)pyrimidine-2-carboxamide] were, in that order, less than 1 nM and 1 to 5 nM.
Take `COCCN(C)CCNC(=O)c1nc(NC(=O)N[C@H]2CC[C@@H](Oc3ccc4nnc(C(C)C)n4c3)c3ccccc32)cc(C(C)(C)C)n1` [Example 70, 4-(tert-butyl)-6-(3-((1S,4R)-4-((3-isopropyl-[1,2,4]triazolo[4,3-a]pyridin-6-yl)oxy)-1,2,3,4-tetrahydronaphthalen-1-yl)ureido)-N-(2-((2-methoxyethyl)(methyl)amino)ethyl)pyrimidine-2-carboxamide]: the results for the IC50 in experiment [1] and in experiment [2] were 1 to 10 nM and more than 5 nM, respectively.
In the same order, the values of `CCC(CC)c1nnc2ccc(O[C@@H]3CC[C@H](NC(=O)Nc4cc(C(C)(C)C)nc(C(=O)NCCO)n4)c4ccccc43)cn12` [Example 72, 4-(tert-butyl)-N-(2-hydroxyethyl)-6-(3-((1S,4R)-4-((3-(pentan-3-yl)-[1,2,4]triazolo[4,3-a]pyridin-6-yl)oxy)-1,2,3,4-tetrahydronaphthalen-1-yl)ureido)pyrimidine-2-carboxamide] are less than 1 nM and 1 to 5 nM.
On to `CCC(CC)c1nnc2ccc(O[C@@H]3CC[C@H](NC(=O)Nc4cc(C(C)(C)C)nc(C(=O)NCCN(C)CCOC)n4)c4ccccc43)cn12` [Example 73, 4-(tert-butyl)-N-(2-((2-methoxyethyl)(methyl)amino)ethyl)-6-(3-((1S,4R)-4-((3-(pentan-3-yl)-[1,2,4]triazolo[4,3-a]pyridin-6-yl)oxy)-1,2,3,4-tetrahydronaphthalen-1-yl)ureido)pyrimidine-2-carboxamide], for which the IC50 in experiment [1] is less than 1 nM; in experiment [2], 1 to 5 nM.
The like results for `CN(C)CCNC(=O)c1nc(NC(=O)N[C@H]2CC[C@@H](Oc3ccc4nnc(C5CCCC5)n4c3)c3ccccc32)cc(C(C)(C)C)n1` [Example 74, 4-(tert-butyl)-6-(3-((1S,4R)-4-((3-cyclopentyl-[1,2,4]triazolo[4,3-a]pyridin-6-yl)oxy)-1,2,3,4-tetrahydronaphthalen-1-yl)ureido)-N-(2-(dimethylamino)ethyl)-pyrimidine-2-carboxamide] were, in that order, 1 to 10 nM and more than 5 nM.
